According to patent US20260083727A1, “PHARMACEUTICAL FORMULATIONS OF NINTEDANIB FOR INTRAOCULAR USE” (Boehringer Ingelheim International GmbH, priority 2022, published 2026):

Experiment: Water solubility
Assay type: physicochemical
Details: in words

## COC(=O)c1ccc2c(c1)NC(=O)/C2=C(\Nc1ccc(N(C)C(=O)CN2CCN(C)CC2)cc1)c1ccccc1 [nintedanib (free base)]
  solubility in water: very poor
